Experimental data reported in patent US12589158B2 (priority 2022, dated 2026).

Experiment: Pharmacokinetics following single administration in SD rat
Parameters: species or system SD rats
Conditions: in vivo, sc, 50 nmol/kg
Experimental: The compound is administrated to male SD rats (230-268 g, n=3) at a dose of 50.0 nmol/kg (s.c.) or 25.0 nmol/kg (i.v.). […] 30.0 μL of thawed plasma sample is taken. 150 μL of acetonitrile solution (containing 5 ng mL^−1 Verapamil, 50 ng·mL^−1 Glibenclamide, 200 ng·mL^−1 Tolbutamide and 200 ng·mL^−1 Diclofenac) are added to precipitate protein. The mixture is vortexed for 5 minutes, and centrifuged at 3700 rpm for 8 minutes. 70.0 μL of the supernatant is taken, into which 70.0 μL of 0.5% aqueous formic acid solution is added. The mixture is vortexed for 5 minutes. 15 μL of the mixture solution is sampled and injected into the LC-MS/MS to determine the drug concentration in plasma. 20.0 μL of thawed plasma sample is taken. 60 μL of acetonitrile solution (containing 5 ng mL^−1 Verapamil, 50 ng·mL^−1 Glibenclamide, 200 ng·mL^−1 Tolbutamide and 200 ng·mL^−1 Diclofenac) are added to precipitate protein. […] The mixture is vortexed for 10 minutes. 10.0 μL of the mixture solution is sampled and injected into the LC-MS/MS to determine the drug concentration in plasma. 30.0 μL of thawed plasma sample is taken. 150 μL of acetonitrile solution (containing 5 ng mL^−1 Verapamil, 50 ng mL^−1 Glibenclamide, 200 ng·mL^−1 Tolbutamide and 200 ng·mL^−1 Diclofenac) are added to precipitate protein. The mixture is vortexed for 5 minutes, and centrifuged at 3700 rpm for 8 minutes. 70.0 μL of the supernatant is taken, into which 70.0 μL of 0.5% aqueous formic acid solution is added. The mixture is vortexed for 5 minutes. 10.0 μL of the mixture solution is sampled and injected into the LC-MS/MS to determine the drug concentration in plasma.

SMILES	MRT inf	MRT last
CC[C@H](C)[C@H](NC(=O)C(C)(C)NC(=O)[C@H](Cc1ccc(O)cc1)NC(=O)[C@H](CC(=O)O)NC(=O)[C@H](CO)NC(=O)[C@@H](NC(=O)C(C)(Cc1ccccc1)NC(=O)[C@@H](NC(=O)CNC(=O)[C@H](CCC(=O)O)NC(=O)C(C)(C)NC(=O)[C@@H](N)Cc1ccc(O)cc1)[C@@H](C)O)[C@@H](C)O)C(=O)NC(C)(C)C(=O)N[C@@H](CC(C)C)C(=O)N[C@@H](CC(=O)O)C(=O)N[C@@H](CCCCN)C(=O)N[C@@H](CCC(N)=O)C(=O)N[C@@H](C)C(=O)N[C@@H](CCC(N)=O)C(=O)N[C@@H](C)C(=O)N[C@@H](CCC(=O)O)C(=O)N[C@@H](Cc1ccccc1)C(=O)N[C@H](C(=O)N[C@@H](CCCCNC(=O)COCCOCCNC(=O)COCCOCCNC(=O)CC[C@H](NC(=O)CCCCCCCCCCCCCCCCC(=O)O)C(=O)O)C(=O)N[C@@H](Cc1c[nH]c2ccccc12)C(=O)N[C@@H](CC(C)C)C(=O)N[C@@H](CC(C)C)C(=O)N[C@@H](CCCCN)C(=O)NCC(=O)NCC(=O)N1CCC[C@H]1C(=O)N[C@@H](CO)C(=O)N[C@@H](CO)C(=O)NCC(=O)N[C@@H](C)C(=O)N1CCC[C@H]1C(=O)N1CCC[C@H]1C(=O)N1CCC[C@H]1C(=O)N[C@@H](CO)C(=O)N[C@@H](CCCCN)C(N)=O)C(C)C (stereo partly shown) [P007]	25.7 ± 1.69 h	21.4 ± 1.87 h
CC[C@H](C)[C@H](NC(=O)C(C)(C)NC(=O)[C@H](Cc1ccc(O)cc1)NC(=O)[C@H](CC(=O)O)NC(=O)[C@H](CO)NC(=O)[C@@H](NC(=O)C(C)(Cc1ccccc1)NC(=O)[C@@H](NC(=O)CNC(=O)[C@H](CCC(=O)O)NC(=O)C(C)(C)NC(=O)[C@@H](N)Cc1ccc(O)cc1)[C@@H](C)O)[C@@H](C)O)C(=O)NC(C)(C)C(=O)N[C@@H](CC(C)C)C(=O)N[C@@H](CC(=O)O)C(=O)N[C@@H](CCCCN)C(=O)N[C@@H](CCC(N)=O)C(=O)N[C@@H](C)C(=O)N[C@@H](CCC(N)=O)C(=O)N[C@@H](C)C(=O)N[C@@H](CCC(=O)O)C(=O)N[C@@H](Cc1ccccc1)C(=O)N[C@H](C(=O)N[C@@H](CCCCN)C(=O)N[C@@H](Cc1c[nH]c2ccccc12)C(=O)N[C@@H](CC(C)C)C(=O)N[C@@H](CC(C)C)C(=O)N[C@@H](CCCCNC(=O)COCCOCCNC(=O)COCCOCCNC(=O)CC[C@H](NC(=O)CCCCCCCCCCCCCCCCC(=O)O)C(=O)O)C(=O)NCC(=O)NCC(=O)N1CCC[C@H]1C(=O)N[C@@H](CO)C(=O)N[C@@H](CO)C(=O)NCC(=O)N[C@@H](C)C(=O)N1CCC[C@H]1C(=O)N1CCC[C@H]1C(=O)N1CCC[C@H]1C(=O)N[C@@H](CO)C(=O)N[C@@H](CCCCN)C(N)=O)C(C)C (stereo partly shown) [P008]	25.4 h	21 ± 1.85 h
CC[C@H](C)[C@H](NC(=O)C(C)(C)NC(=O)[C@H](Cc1ccc(O)cc1)NC(=O)[C@H](CC(=O)O)NC(=O)[C@H](CO)NC(=O)[C@@H](NC(=O)C(C)(Cc1ccccc1)NC(=O)[C@@H](NC(=O)CNC(=O)[C@H](CCC(=O)O)NC(=O)C(C)(C)NC(=O)[C@@H](N)Cc1ccc(O)cc1)[C@@H](C)O)[C@@H](C)O)C(=O)NC(C)(C)C(=O)N[C@@H](CC(C)C)C(=O)N[C@@H](CC(=O)O)C(=O)N[C@@H](CCCCN)C(=O)N[C@@H](CCC(N)=O)C(=O)N[C@@H](C)C(=O)N[C@@H](CCC(N)=O)C(=O)N[C@@H](C)C(=O)N[C@@H](CCC(=O)O)C(=O)N[C@@H](Cc1ccccc1)C(=O)N[C@H](C(=O)N[C@@H](CCCCNC(=O)COCCOCCNC(=O)COCCOCCNC(=O)CC[C@H](NC(=O)CCCCCCCCCCCCCCCCCCC(=O)O)C(=O)O)C(=O)N[C@@H](Cc1c[nH]c2ccccc12)C(=O)N[C@@H](CC(C)C)C(=O)N[C@@H](CC(C)C)C(=O)N[C@@H](CCCCN)C(=O)NCC(=O)NCC(=O)N1CCC[C@H]1C(=O)N[C@@H](CO)C(=O)N[C@@H](CO)C(=O)NCC(=O)N[C@@H](C)C(=O)N1CCC[C@H]1C(=O)N1CCC[C@H]1C(=O)N1CCC[C@H]1C(=O)N[C@@H](CO)C(=O)N[C@@H](CCCCN)C(N)=O)C(C)C (stereo partly shown) [P013]	29.9 ± 1.33 h	26.2 ± 0.7 h
CC[C@H](C)[C@H](NC(=O)C(C)(C)NC(=O)[C@H](Cc1ccc(O)cc1)NC(=O)[C@H](CC(=O)O)NC(=O)[C@H](CO)NC(=O)[C@@H](NC(=O)C(C)(Cc1ccccc1)NC(=O)[C@@H](NC(=O)CNC(=O)[C@H](CCC(=O)O)NC(=O)C(C)(C)NC(=O)[C@@H](N)Cc1ccc(O)cc1)[C@@H](C)O)[C@@H](C)O)C(=O)NC(C)(C)C(=O)N[C@@H](CC(C)C)C(=O)N[C@@H](CC(=O)O)C(=O)N[C@@H](CCCCN)C(=O)N[C@@H](CCC(N)=O)C(=O)N[C@@H](C)C(=O)N[C@@H](CCC(N)=O)C(=O)N[C@@H](C)C(=O)N[C@@H](CCC(=O)O)C(=O)N[C@@H](Cc1ccccc1)C(=O)N[C@H](C(=O)N[C@@H](CCCCN)C(=O)N[C@@H](Cc1c[nH]c2ccccc12)C(=O)N[C@@H](CC(C)C)C(=O)N[C@@H](CC(C)C)C(=O)N[C@@H](CCCCNC(=O)COCCOCCNC(=O)COCCOCCNC(=O)CC[C@H](NC(=O)CC[C@H](NC(=O)CC[C@H](NC(=O)CCCCCCCCCCCCCCCCC(=O)O)C(=O)O)C(=O)O)C(=O)O)C(=O)NCC(=O)NCC(=O)N1CCC[C@H]1C(=O)N[C@@H](CO)C(=O)N[C@@H](CO)C(=O)NCC(=O)N[C@@H](C)C(=O)N1CCC[C@H]1C(=O)N1CCC[C@H]1C(=O)N1CCC[C@H]1C(=O)N[C@@H](CO)C(=O)N[C@@H](CCCCN)C(N)=O)C(C)C (stereo partly shown) [P018]	33.4 ± 7 h	28.5 ± 4.45 h
CC[C@H](C)[C@H](NC(=O)C(C)(C)NC(=O)[C@H](Cc1ccc(O)cc1)NC(=O)[C@H](CC(=O)O)NC(=O)[C@H](CO)NC(=O)[C@@H](NC(=O)C(C)(Cc1ccccc1)NC(=O)[C@@H](NC(=O)CNC(=O)[C@H](CCC(=O)O)NC(=O)C(C)(C)NC(=O)[C@@H](N)Cc1ccc(O)cc1)[C@@H](C)O)[C@@H](C)O)C(=O)NC(C)(C)C(=O)N[C@@H](CC(C)C)C(=O)N[C@@H](CC(=O)O)C(=O)N[C@@H](CCCCN)C(=O)N[C@@H](CCC(N)=O)C(=O)N[C@@H](C)C(=O)N[C@@H](CCC(N)=O)C(=O)N[C@@H](C)C(=O)N[C@@H](CCC(=O)O)C(=O)N[C@@H](Cc1ccccc1)C(=O)N[C@H](C(=O)N[C@@H](CCCCN)C(=O)N[C@@H](Cc1c[nH]c2ccccc12)C(=O)N[C@@H](CC(C)C)C(=O)N[C@@H](CC(C)C)C(=O)N[C@@H](CCCCNC(=O)COCCOCCNC(=O)COCCOCCNC(=O)COCCOCCNC(=O)CC[C@H](NC(=O)CCCCCCCCCCCCCCCCC(=O)O)C(=O)O)C(=O)NCC(=O)NCC(=O)N1CCC[C@H]1C(=O)N[C@@H](CO)C(=O)N[C@@H](CO)C(=O)NCC(=O)N[C@@H](C)C(=O)N1CCC[C@H]1C(=O)N1CCC[C@H]1C(=O)N1CCC[C@H]1C(=O)N[C@@H](CO)C(=O)N[C@@H](CCCCN)C(N)=O)C(C)C (stereo partly shown) [P019]	18.3 ± 2.76 h	17.1 ± 2.55 h
